Results published in US12685719B2, “Treatment of breast cancer with selective androgen receptor modulators and cyclin-dependent kinase 4/6 inhibitors” (UNIVERSITY OF TENNESSEE RESEARCH FOUNDATION, priority 2012, dated 2026).

Tests used:
Assay type in all cases: cell-based
[1] = target: T1, ER-β (Rattus norvegicus, UniProt Q62986); assay: Transcriptional activation (luciferase) in HEK-293 cells, ER-β; parameters: activation of ER-β: dose or concentration left out as unconfirmed
T1 construct: expressed in transfected cells
Procedure: Rat GR, MR, PR, ER-α and ER-β were individually cloned into a pCR3.1 vector backbone. Sequencing was performed to verify the absence of any mutations. HEK-293 cells were plated at 90,000 cells per well of a 24 well plate in Dulbecco's Minimal Essential Media supplemented with 5% charcoal-stripped FBS. The cells were transfected using Lipofectamine (Invitrogen, Carlsbad, CA) with […] GRE-LUC for GR, MR and PR and ERE-LUC for ER-α and ER-β, 0.5 ng CMV-LUC (Renilla luciferase) and 12.5-25 ng of the respective expression vector for each receptor. […] Luciferase assays were performed 48 h after transfection. Transcriptional activation values are represented as firefly luciferase normalized to Renilla luciferase.

[2] = target: T2, ER-α (Rattus norvegicus, UniProt P06211); assay: Transcriptional activation (luciferase) in HEK-293 cells, ER-α; parameters: activation of ER-α: dose or concentration left out as unconfirmed
T2 construct: expressed in transfected cells
T2 sequence (P06211 1-600): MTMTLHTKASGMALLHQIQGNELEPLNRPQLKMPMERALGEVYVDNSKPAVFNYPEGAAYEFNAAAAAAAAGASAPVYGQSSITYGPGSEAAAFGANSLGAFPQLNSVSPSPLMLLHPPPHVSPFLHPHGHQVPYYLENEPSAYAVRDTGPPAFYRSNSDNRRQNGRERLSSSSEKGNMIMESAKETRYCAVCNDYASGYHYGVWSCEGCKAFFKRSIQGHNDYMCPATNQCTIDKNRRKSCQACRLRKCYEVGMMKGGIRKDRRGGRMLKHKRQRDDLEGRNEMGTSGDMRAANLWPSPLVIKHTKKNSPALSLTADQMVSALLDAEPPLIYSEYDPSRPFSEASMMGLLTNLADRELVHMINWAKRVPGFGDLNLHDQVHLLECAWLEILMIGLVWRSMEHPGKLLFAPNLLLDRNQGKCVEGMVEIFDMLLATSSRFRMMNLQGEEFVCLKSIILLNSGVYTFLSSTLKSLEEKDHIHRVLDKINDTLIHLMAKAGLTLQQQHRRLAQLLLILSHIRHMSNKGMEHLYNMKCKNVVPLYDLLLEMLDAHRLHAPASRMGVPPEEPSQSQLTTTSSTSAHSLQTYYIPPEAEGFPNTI
Procedure: (§1) Rat GR, MR, PR, ER-α and ER-β were individually cloned into a pCR3.1 vector backbone. Sequencing was performed to verify the absence of any mutations. HEK-293 cells were plated at 90,000 cells per well of a 24 well plate in Dulbecco's Minimal Essential Media supplemented with 5% charcoal-stripped FBS. […] Luciferase assays were performed 48 h after transfection. Transcriptional activation values are represented as firefly luciferase normalized to Renilla luciferase.

[3] = target: T3, GR (Rattus norvegicus, UniProt P06536); assay: Transcriptional activation (luciferase) in HEK-293 cells, GR
T3 construct: expressed in transfected cells
T3 sequence (P06536 1-795): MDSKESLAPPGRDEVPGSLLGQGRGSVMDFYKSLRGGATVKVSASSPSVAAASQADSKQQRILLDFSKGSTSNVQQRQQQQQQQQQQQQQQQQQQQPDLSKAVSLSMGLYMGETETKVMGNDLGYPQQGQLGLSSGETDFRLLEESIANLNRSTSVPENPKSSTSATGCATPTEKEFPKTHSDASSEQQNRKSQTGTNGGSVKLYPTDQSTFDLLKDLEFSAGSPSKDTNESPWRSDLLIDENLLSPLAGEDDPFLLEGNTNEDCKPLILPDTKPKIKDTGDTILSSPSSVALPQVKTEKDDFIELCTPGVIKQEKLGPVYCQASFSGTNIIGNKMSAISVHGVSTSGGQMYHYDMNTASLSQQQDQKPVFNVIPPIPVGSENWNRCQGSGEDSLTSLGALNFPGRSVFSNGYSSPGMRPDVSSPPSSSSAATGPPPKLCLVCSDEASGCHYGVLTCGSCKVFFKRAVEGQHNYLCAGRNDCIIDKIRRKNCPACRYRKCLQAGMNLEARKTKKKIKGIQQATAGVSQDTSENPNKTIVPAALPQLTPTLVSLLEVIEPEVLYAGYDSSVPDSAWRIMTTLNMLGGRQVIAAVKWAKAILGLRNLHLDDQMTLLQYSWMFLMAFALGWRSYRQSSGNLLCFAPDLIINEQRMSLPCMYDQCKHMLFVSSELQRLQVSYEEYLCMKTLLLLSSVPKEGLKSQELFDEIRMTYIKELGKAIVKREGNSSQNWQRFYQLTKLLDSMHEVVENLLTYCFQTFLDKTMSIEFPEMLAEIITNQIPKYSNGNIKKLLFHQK
Procedure: as §1

[4] = target: T4, AR (Homo sapiens, UniProt P10275); assay: AR transactivation (GRE-LUC luciferase) in MDA-MB-231 cells; settings: cells transfected with AR and GRE-LUC
T4 construct: expressed in transfected cells; host or cells: MDA-MB-231
Procedure: Though AR transactivation assay was performed in HEK-293 cells, the ability of ligands to function as agonists or antagonists depends on cellular microenvironment. […] The cells were treated 24 h after transfection and luciferase assay performed 48 h after transfection.

[5] = tested on: MDA-MB-231 breast cancer cells stably transfected with AR; assay: Proliferation of MDA-MB-231 cells stably transfected with AR (Coulter counter); settings: 6 days
Procedure: MDA-MB-231 cells stably transfected with AR using lentivirus were treated with the indicated ligands for 6 days and the number of cells counted using Coulter counter.

[6] = agonist mode, highest tested concentration

T1 sequence (Q62986 whole entry): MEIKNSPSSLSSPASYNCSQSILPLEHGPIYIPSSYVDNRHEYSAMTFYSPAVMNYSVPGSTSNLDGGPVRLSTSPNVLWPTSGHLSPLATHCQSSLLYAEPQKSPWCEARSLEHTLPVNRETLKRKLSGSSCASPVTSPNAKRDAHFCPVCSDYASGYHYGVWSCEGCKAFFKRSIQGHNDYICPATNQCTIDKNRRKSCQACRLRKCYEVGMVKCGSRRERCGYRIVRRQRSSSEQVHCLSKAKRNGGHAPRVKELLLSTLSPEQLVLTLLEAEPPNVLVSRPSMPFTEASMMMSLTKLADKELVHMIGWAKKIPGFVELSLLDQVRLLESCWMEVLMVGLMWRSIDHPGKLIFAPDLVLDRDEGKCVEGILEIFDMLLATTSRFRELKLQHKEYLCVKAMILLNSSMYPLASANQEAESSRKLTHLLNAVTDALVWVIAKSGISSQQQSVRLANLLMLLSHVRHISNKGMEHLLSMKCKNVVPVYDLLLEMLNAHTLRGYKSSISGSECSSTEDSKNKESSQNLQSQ
T4 sequence (P10275 whole entry): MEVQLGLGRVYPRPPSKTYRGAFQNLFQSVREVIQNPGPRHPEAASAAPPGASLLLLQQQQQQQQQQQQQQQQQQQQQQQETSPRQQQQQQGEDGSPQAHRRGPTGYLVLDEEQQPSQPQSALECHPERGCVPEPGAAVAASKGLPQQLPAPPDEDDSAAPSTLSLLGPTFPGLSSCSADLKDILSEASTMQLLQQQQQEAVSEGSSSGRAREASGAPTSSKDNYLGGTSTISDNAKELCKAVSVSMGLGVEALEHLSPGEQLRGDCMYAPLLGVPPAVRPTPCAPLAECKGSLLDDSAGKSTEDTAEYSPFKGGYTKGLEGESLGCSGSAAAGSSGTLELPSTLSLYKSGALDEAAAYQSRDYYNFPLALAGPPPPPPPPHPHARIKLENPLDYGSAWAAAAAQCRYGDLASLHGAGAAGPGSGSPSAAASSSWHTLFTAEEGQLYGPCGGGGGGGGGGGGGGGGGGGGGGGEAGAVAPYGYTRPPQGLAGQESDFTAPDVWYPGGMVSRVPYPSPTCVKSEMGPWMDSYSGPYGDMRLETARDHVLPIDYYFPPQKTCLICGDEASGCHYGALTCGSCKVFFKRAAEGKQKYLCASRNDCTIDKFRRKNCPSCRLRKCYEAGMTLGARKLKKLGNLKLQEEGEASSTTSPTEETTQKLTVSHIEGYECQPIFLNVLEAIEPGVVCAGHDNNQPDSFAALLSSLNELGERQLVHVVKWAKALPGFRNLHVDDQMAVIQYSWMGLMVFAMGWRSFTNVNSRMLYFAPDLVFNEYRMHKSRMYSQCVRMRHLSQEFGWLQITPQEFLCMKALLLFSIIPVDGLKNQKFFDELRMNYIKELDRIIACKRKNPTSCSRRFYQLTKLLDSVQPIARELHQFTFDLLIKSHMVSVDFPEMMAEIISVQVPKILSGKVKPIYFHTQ

Row | SMILES | receptor-mediated transactivation of ERβ (stimulate or inhibit) [1] | receptor-mediated transactivation of ERα (stimulate or inhibit) [2] | receptor-mediated transactivation of GR (stimulate or inhibit) [3] | AR agonist activity (transactivation) [4] | proliferation (number of cells) [5] | activation of ER-β [1, 6] | 17β-estradiol-induced ER-β activity ([1]; antagonist mode) | activation of ER-α [2, 6] | 17β-estradiol-induced ER-α activity ([2]; antagonist mode) | GR-mediated transactivation ([3]; agonist mode, all the tested concentrations) | dexamethasone-induced GR-mediated transactivation ([3]; antagonist mode)
1 | C[C@](O)(COc1ccc(C#N)cc1)C(=O)Nc1ccc(C#N)c(C(F)(F)F)c1 [Formula IX, (S)-N-(4-Cyano-3-(trifluoromethyl)phenyl)-3-(4-cyanophenoxy)-2-hydroxy-2-methylpropanamide] | do not stimulate or inhibit | do not stimulate or inhibit | do not stimulate or inhibit | agonists of AR | inhibited the proliferation | – | – | – | – | – | –
2 | C[C@](O)(COc1ccc(C#N)cc1)C(=O)Nc1ccc(C#N)c(Cl)c1 [Formula VIII, (S)-N-(3-chloro-4-cyanophenyl)-3-(4-cyanophenoxy)-2-hydroxy-2-methylpropanamide] | do not stimulate or inhibit | do not stimulate or inhibit | do not stimulate or inhibit | agonists of AR | inhibited the proliferation | failed to activate | failed to alter | failed to activate | failed to alter | did not induce | failed to alter
